Test [1] concerns the target T1, catalytic domain (JH1, amino acids 826-1132) of human JAK2 (Homo sapiens, UniProt O60674).
T1 construct: catalytic domain (JH1, amino acids 826-1132) of human JAK2; FLAG (N); purchased Carna Biosciences 08-445-20N; host or cells: baculovirus expression system
Nature of the test: JAK2 LanthaScreen JH1 binding assay. The following applies: 50 nM tracer, 2 hours at 25° C., read-out: JH1 BIND IC50. As to the method:
Example A. JAK2 LanthaScreen […] Binding Assay
JAK2 JH1 binding assay utilizes catalytic domain (JH1, amino acids 826-1132) of human JAK2 expressed as N-terminal FLAG-tagged, biotinylated protein in a baculovirus expression system (Carna Biosciences, Product #08-445-20N). The assay was conducted in black 384-well polystyrene plates in a final reaction volume of 20 μL. JAK2 JH1 (1.5 nM) was incubated with compounds (100 nL serially diluted in DMSO) in the presence of 50 nM fluorescent JAK2-JH1 tracer and 0.5 nM Streptavidin-Tb cryptate (Cisbio Part #610SATLB) in assay buffer (50 mM Tris, pH=7.5, 10 mM MgCl2, 0.01% Brij-35, 0.1% BSA, 1 mM EGTA, 5% Glycerol and 5 mM DTT). Non-specific binding was accessed in the presence of 2 mM ATP. After incubation for 2 hours at 25° C., LanthaScreen signals were read on a PHERAstar FS plate reader (BMG LABTECH). Data was analyzed with IDBS XLfit and GraphPad Prism 5.0 software using a four parameter dose response curve to determine IC50 for each compound.
Background: In TR-FRET formats the signal depends on donor and acceptor labels being close together.

Test [2] concerns the target T2, pseudo-kinase domain (JH2, amino-acids 536-812 with 3 surface mutations W659A, W777A, F794H) of human Wild Type JAK2 (Homo sapiens, UniProt O60674, F794H/W659A/W777A).
T2 construct: pseudo-kinase domain (JH2, amino-acids 536-812 with 3 surface mutations W659A, W777A, F794H); His (C); Avi (biotinylated) (C); purchased BPS Bioscience 79463; host or cells: baculovirus expression system
Nature of the test: JAK2 LanthaScreen JH2-WT binding assay. The following applies: 50 nM tracer, 1 hour at 25° C., read-out: JH2 BIND WT IC50. As to the method:
Example B. JAK2 LanthaScreen JH2-WT Binding Assay
(§1) JAK2 JH2-WT binding assay utilizes pseudo-kinase domain (JH2, amino-acids 536-812 with 3 surface mutations W659A, W777A, F794H) of human Wild Type JAK2 expressed as C-terminal His-Avi-tagged, biotinylated protein in a baculovirus expression system (BPS Bioscience, Catalog #79463). The assay was conducted in black 384-well polystyrene plates in a final reaction volume of 20 μL. JAK2 JH2-WT (0.145 nM) was incubated with compounds (100 nL serially diluted in DMSO) in the presence of 50 nM Fluorescent JAK2-JH2 Tracer (MedChem Express Catalog #HY-102055) and 0.25 nM Streptavidin-Tb cryptate (Cisbio Part #610SATLB) in assay buffer (50 mM Tris, pH=7.5, 10 mM MgCl2, 0.01% Brij-35, 0.1% BSA, 1 mM EGTA, 5% Glycerol and 5 mM DTT). Non-specific binding was accessed in the presence of 2 mM ATP. After incubation for 1 hour at 25° C., LanthaScreen signals were read on a PHERAstar FS plate reader (BMG LABTECH). Data was analyzed with IDBS XLfit and GraphPad Prism 5.0 software using a four parameter dose response curve to determine IC50 for each compound.

Test [3] addresses T3, pseudo-kinase domain (JH2, amino-acids 536-812 with 3 surface mutations W659A, W777A, F794H) of human V617F mutant JAK2 (Homo sapiens, UniProt O60674, F794H/V617F/W659A/W777A).
T3 construct: pseudo-kinase domain (JH2, amino-acids 536-812 with 3 surface mutations W659A, W777A, F794H); His (C); Avi (biotinylated) (C); purchased BPS Bioscience 79498; host or cells: baculovirus expression system
Nature of the test: JAK2 LanthaScreen JH2-V617F binding assay. The following applies: 50 nM tracer, 1 hour at 25° C., read-out: JH2 BIND V617F IC50. As to the method:
Example C. JAK2 LanthaScreen JH2-V617F Binding Assay
as §1, with “JH2-V617F” for “JH2-WT”, “V617F mutant” for “Wild Type”, “#79498).” for “#79463).”, “JH2-V617F (0.26” for “JH2-WT (0.145”

A value given as a limit tells only on which side of the number the result lay.

T3 sequence (O60674 536-812 V617F/W659A/W777A/F794H): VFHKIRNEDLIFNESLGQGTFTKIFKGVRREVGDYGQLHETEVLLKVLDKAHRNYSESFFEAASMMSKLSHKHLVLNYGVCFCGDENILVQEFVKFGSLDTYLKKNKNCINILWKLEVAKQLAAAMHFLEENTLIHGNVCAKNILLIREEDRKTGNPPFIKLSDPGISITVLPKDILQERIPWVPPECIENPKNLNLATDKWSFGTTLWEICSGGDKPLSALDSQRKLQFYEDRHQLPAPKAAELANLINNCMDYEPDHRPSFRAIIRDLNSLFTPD
T2 sequence (O60674 536-812 W659A/W777A/F794H): as the sequence (O60674 536-812 V617F/W659A/W777A/F794H) above, with F82V counted along it
T1 sequence (O60674 826-1132): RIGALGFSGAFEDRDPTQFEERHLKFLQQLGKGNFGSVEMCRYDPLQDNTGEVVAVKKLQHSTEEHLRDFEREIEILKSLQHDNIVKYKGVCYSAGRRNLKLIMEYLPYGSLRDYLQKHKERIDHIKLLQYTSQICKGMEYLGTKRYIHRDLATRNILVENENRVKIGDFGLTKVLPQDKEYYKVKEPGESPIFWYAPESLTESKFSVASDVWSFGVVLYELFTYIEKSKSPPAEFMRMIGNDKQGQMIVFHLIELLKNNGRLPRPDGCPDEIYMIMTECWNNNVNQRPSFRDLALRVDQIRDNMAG

`CC(C)COC(=O)N[C@@H]1CC[C@@H](N2C(=O)NCc3cnc4[nH]c(-c5cnn(C)c5)c(-c5ccc6c(cnn6C(C)C)c5)c4c32)C1` [Example 12, Isobutyl ((1R,3R)-3-(9-(1-isopropyl-1H-indazol-5-yl)-8-(1-methyl-1H-pyrazol-4-yl)-2-oxo-2,3,4,7-tetrahydro-1H-pyrrolo[3′,2′:5,6]pyrido[4,3-d]pyrimidin-1-yl)cyclopentyl) carbamate]: the concentration for half-maximal inhibition (IC50) was more than 1000 nM in test [1], 10 to 100 nM in test [2] and 10 to 100 nM in test [3].

Consider `CC(C)n1ncc2cc(-c3c(-c4cnn(C)c4)[nH]c4ncc5c(c34)N(C3CCN(C(=O)NCC(F)F)CC3)C(=O)NC5)ccc21` [Example 17, N-(2,2-Difluoroethyl)-4-(9-(1-isopropyl-1H-indazol-5-yl)-8-(1-methyl-1H-pyrazol-4-yl)-2-oxo-2,3,4,7-tetrahydro-1H-pyrrolo[3′,2′:5,6]pyrido[4,3-d]pyrimidin-1-yl)piperidine-1-carboxamide], for which the IC50 was more than 1000 nM in test [1], 10 to 100 nM in test [2] and 10 to 100 nM in test [3].

In the case of `COC(=O)N[C@H]1C[C@H](N2C(=O)NCc3cnc4[nH]c(-c5ccc(CN6CCOCC6)cc5)c(-c5ccc6c(cnn6C(C)C)c5)c4c32)C1` [Example 33, Methyl ((1r,3r)-3-(9-(1-isopropyl-1H-indazol-5-yl)-8-(4-(morpholinomethyl)phenyl)-2-oxo-2,3,4,7-tetrahydro-1H-pyrrolo[3′,2′:5,6]pyrido[4,3-d]pyrimidin-1-yl)cyclobutyl)carbamate], the IC50 is more than 1000 nM in test [1], not above 10 nM in test [2] and not above 10 nM in test [3].

`COC(=O)N[C@@H]1CC[C@@H](n2c(=O)[nH]c(=O)c3cnc4[nH]c(-c5cnn(C)c5)c(-c5ccc6c(cnn6C(C)C)c5)c4c32)C1` [Example 39, Methyl ((1R,3R)-3-(9-(1-isopropyl-1H-indazol-5-yl)-8-(1-methyl-1H-pyrazol-4-yl)-2,4-dioxo-2,3,4,7-tetrahydro-1H-pyrrolo[3′,2′:5,6]pyrido[4,3-d]pyrimidin-1-yl)cyclopentyl)carbamate]: the IC50 is more than 1000 nM in test [1], 10 to 100 nM in test [2] and 10 to 100 nM in test [3].

Consider `COC(=O)N[C@@H]1CC[C@@H](N2C(=O)NCc3cnc4[nH]c(-c5cnn(C)c5)c(-c5ccc6c(cnn6CC6CC6)c5)c4c32)C1` [Example 23, Methyl ((1R,3R)-3-(9-(1-(cyclopropylmethyl)-1H-indazol-5-yl)-8-(1-methyl-1H-pyrazol-4-yl)-2-oxo-2,3,4,7-tetrahydro-1H-pyrrolo[3′,2′:5,6]pyrido[4,3-d]pyrimidin-1-yl)cyclopentyl) carbamate], for which the IC50 in test [1] was 100 to 500 nM; in test [2] it was not above 10 nM; in test [3] it was 10 to 100 nM.

For the molecule `COC(=O)N[C@H]1C[C@H](N2C(=O)NCc3cnc4[nH]c(C5=CCN(C)CC5)c(-c5ccc6c(cnn6C(C)C)c5)c4c32)C1` [Example 34, Methyl ((1r,3r)-3-(9-(1-isopropyl-1H-indazol-5-yl)-8-(1-methyl-1,2,3,6-tetra hydropyridin-4-yl)-2-oxo-2,3,4,7-tetrahydro-1H-pyrrolo[3′,2′:5,6]pyrido[4,3-d]pyrimidin-1-yl)cyclobutyl) carbamate], the IC50 in test [1] is more than 1000 nM; in test [2], 10 to 100 nM; in test [3], 10 to 100 nM.

Regarding `COC(=O)N[C@@H]1CC[C@@H](N2C(=O)NCc3cnc4[nH]c(-c5cnn(C)c5)c(-c5ccc(OC6CCOC6)cc5)c4c32)C1` (mixture of isomers) [Example 27, Methyl ((1R,3R)-3-(8-(1-methyl-1H-pyrazol-4-yl)-2-oxo-9-(4-((tetrahydrofuran-3-yl)oxy)phenyl)-2,3,4,7-tetrahydro-1H-pyrrolo[3′,2′:5,6]pyrido[4,3-d]pyrimidin-1-yl)cyclopentyl)ca rbamate], the IC50 in test [1] was 100 to 500 nM; in test [2] it was 10 to 100 nM; in test [3], 10 to 100 nM.

With `COC(=O)N[C@H]1C[C@H](N2C(=O)NCc3cnc4[nH]c(-c5cnn(C)c5)c(-c5ccc6c(cnn6C(C)C)c5)c4c32)C1` [Example 1, Methyl ((1r,3r)-3-(9-(1-isopropyl-1H-indazol-5-yl)-8-(1-methyl-1H-pyrazol-4-yl)-2-oxo-2,3,4,7-tetrahydro-1H-pyrrolo[3′,2′:5,6]pyrido[4,3-d]pyrimidin-1-yl)cyclobutyl)carbamate], the IC50 in test [1] was 100 to 500 nM; in test [2], not above 10 nM; in test [3], not above 10 nM.

Turning to `CC(C)n1ncc2cc(-c3c(-c4cnn(C)c4)[nH]c4ncc5c(c34)N(C3CCC4(CC3)CN(S(=O)(=O)C3(C)CC3)C4)C(=O)NC5)ccc21` [Example 20, 9-(1-isopropyl-1H-indazol-5-yl)-8-(1-methyl-1H-pyrazol-4-yl)-1-(2-((1-methylcyclopropyl)sulfonyl)-2-azaspiro[3.5]nonan-7-yl)-1,3,4,7-tetrahydro-2H-pyrrolo [3′,2′:5,6]pyrido[4,3-d]pyrimidin-2-one], the results for the 50% inhibitory concentration (IC50) in test [1], in test [2] and in test [3] were more than 1000 nM, 10 to 100 nM and 10 to 100 nM, respectively.

Take `CC(C)n1ncc2cc(-c3c(-c4cnn(C)c4)[nH]c4ncc5c(c34)N([C@H]3C[C@@H](NC(=O)Cc4ccn(C)n4)C3)C(=O)NC5)ccc21` [Example 21, N-((1s,3s)-3-(9-(1-Isopropyl-1H-indazol-5-yl)-8-(1-methyl-1H-pyrazol-4-yl)-2-oxo-2,3,4,7-tetrahydro-1H-pyrrolo[3′,2′:5,6]pyrido[4,3-d]pyrimidin-1-yl)cyclobutyl)-2-(1-methyl-1H-pyrazol-3-yl)acetamide]: the IC50 was 500 to 1000 nM in test [1], 10 to 100 nM in test [2] and 10 to 100 nM in test [3].

For the molecule `COCc1ccc(-c2c(-c3cnn(C)c3)[nH]c3ncc4c(c23)N([C@@H]2CC[C@@H](NC(=O)OC)C2)C(=O)NC4)cc1` [Example 32, Methyl ((1R,3R)-3-(9-(4-(methoxymethyl)phenyl)-8-(1-methyl-1H-pyrazol-4-yl)-2-oxo-2,3,4,7-tetrahydro-1H-pyrrolo[3′,2′:5,6]pyrido[4,3-d]pyrimidin-1-yl)cyclopentyl) carbamate], the figures for the IC50 in test [1], in test [2] and in test [3] were 500 to 1000 nM, 10 to 100 nM and 10 to 100 nM, respectively.

`CC(C)n1ncc2cc(-c3c(-c4cnn(C)c4)[nH]c4ncc5c(c34)N([C@H]3CC[C@@H]3NC(=O)NCC(F)F)C(=O)NC5)ccc21` (racemic) [Example 8, N-(2,2-Difluoroethyl)-3-(trans-2-(9-(1-isopropyl-1H-indazol-5-yl)-8-(1-methyl-1H-pyrazol-4-yl)-2-oxo-2,3,4,7-tetrahydro-1H-pyrrolo[3′,2′:5,6]pyrido[4,3-d]pyrimidin-1-yl)cyclobutyl)urea]: the IC50 in test [1] was more than 1000 nM; in test [2], 10 to 100 nM; in test [3] it was 100 to 500 nM.

As usually defined, the IC50 is the concentration at which inhibition is half-maximal.

The values are drawn from patent US20240300948A1, “Heterocyclic Compounds As Kinase Inhibitors” (Incyte Corporation, priority 2023, published 2024).
